According to ChEMBL document CHEMBL1124513, “Synthesis and antitumor activity of ribavirin imidates. A new facile synthesis of ribavirin amidine (1-beta-D-ribofuranosyl-1,2,4-triazole-3-carboxamidine hydrochloride)” (J Med Chem, 1989):
“And” between values parts separate entries of the source, which are not always exact repeats. Equal values may be shown once.

Experiments:
[1] = system: L1210; assay: Residual leukemic cell populations after last treatment in L1210 leukemic mice treated with 480 mg/kg of compound (bid, day 1,3,5,7); assay type: functional, Mus musculus
[2] = system: L1210; assay: Residual leukemic cell populations after last treatment in L1210 leukemic mice treated with 480 mg/kg of compound (bid, day 1-7); Toxic; assay type: toxicity, organism-based; design: dose 480 mg/kg; details: mouse, in vivo
[3] = system: L1210; assay: (§1) Residual leukemic cell populations after last treatment in L1210 leukemic mice treated with 480 mg/kg of compound (qd, day 1); assay type: functional, Mus musculus
[4] = system: L1210; assay: Residual leukemic cell populations after last treatment in L1210 leukemic mice treated with 480 mg/kg of compound (qd, day 1,3,5,7); assay type: functional, Mus musculus
[5] = system: L1210; assay: Residual leukemic cell populations after last treatment in L1210 leukemic mice treated with 480 mg/kg of compound (qd, day 1,4,7); assay type: functional, Mus musculus
[6] = system: L1210; assay: Residual leukemic cell populations after last treatment in L1210 leukemic mice treated with 480 mg/kg of compound (qid, day 1); Toxic; assay type: toxicity, organism-based; design: dose 480 mg/kg; details: mouse, in vivo
[7] = system: L1210; assay: Residual leukemic cell populations after last treatment in L1210 leukemic mice treated with 480 mg/kg of compound (tid, day 1); assay type: functional, Mus musculus
[8] = system: L1210; assay: Residual leukemic cell populations after last treatment in L1210 leukemic mice treated with 480 mg/kg of compound (tid, day 1-7); Toxic; assay type: functional, organism-based; design: dose 480 mg/kg; details: Mus musculus
[9] = system: L1210; assay: Residual leukemic cell populations after last treatment in L1210 leukemic mice treated with 480 mg/kg of compound (bid, day 1); assay type: functional, Mus musculus
[10] = system: L1210; assay: as §1; assay type: functional, Mus musculus; remark: listed apart in the source
[11] = system: L1210; assay: Residual leukemic cell populations after last treatment in L1210 leukemic mice treated with 480 mg/kg of compound (tid, day 1,3,5,7); Toxic; assay type: toxicity, organism-based; design: dose 480 mg/kg; details: mouse, in vivo
[12] = system: Mus musculus; assay: Post inoculation life span in L1210 leukemic mice treated with 480 mg/kg of compound (bid, day 1); assay type: functional
[13] = system: Mus musculus; assay: Post inoculation life span in L1210 leukemic mice treated with 480 mg/kg of compound (bid, day 1,3,5,7); assay type: functional
[14] = system: Mus musculus; assay: Post inoculation life span in L1210 leukemic mice treated with 480 mg/kg of compound (bid, day 1-7); assay type: functional
[15] = system: Mus musculus; assay: (§2) Post inoculation life span in L1210 leukemic mice treated with 480 mg/kg of compound (qd, day 1); assay type: functional
[16] = system: Mus musculus; assay: Post inoculation life span in L1210 leukemic mice treated with 480 mg/kg of compound (qd, day 1,4,7); assay type: functional
[17] = system: Mus musculus; assay: (§3) Post inoculation life span in L1210 leukemic mice treated with 480 mg/kg of compound (qd, day 1-7); assay type: functional
[18] = system: Mus musculus; assay: Post inoculation life span in L1210 leukemic mice treated with 480 mg/kg of compound (tid, day 1); assay type: functional
[19] = system: Mus musculus; assay: Post inoculation life span in L1210 leukemic mice treated with 480 mg/kg of compound (tid, day 1,3,5,7); assay type: functional
[20] = system: Mus musculus; assay: Post inoculation life span in L1210 leukemic mice treated with 480 mg/kg of compound (tid, day 1-7); assay type: functional
[21] = system: Mus musculus; assay: as §2; assay type: functional; remark: listed apart in the source
[22] = system: Mus musculus; assay: Post inoculation life span in L1210 leukemic mice treated with 480 mg/kg of compound (qd, day 1,3,5,7); assay type: functional
[23] = system: Mus musculus; assay: as §3; assay type: functional; remark: listed apart in the source
[24] = system: Mus musculus; assay: Post inoculation life span in L1210 leukemic mice treated with 480 mg/kg of compound (qid, day 1); assay type: functional
[25] = system: Mus musculus; assay: Compound was evaluated for leukemia related splenomegaly in DBA2 mice spleen weight was determined ~ 24 hour after the last treatment at schedule of administration at qd, day 1,3, 5, 7, 9, 11 at a dose 288 mg/kg; assay type: functional
[26] = system: Mus musculus; assay: Compound was evaluated for leukemia related splenomegaly in DBA2 mice spleen weight was determined ~ 24 hour after the last treatment at schedule of administration = qd, day 1,3, 5, 7, 9, 11 at a dose 400 mg/kg; assay type: functional
[27] = system: Mus musculus; assay: Compound was evaluated for leukemia related splenomegaly in DBA2 mice spleen weight was determined ~ 24 hour after the last treatment at schedule of administration at bid, day 1,3, 5, 7, 9, 11 at a dose 288 mg/kg; assay type: functional
[28] = system: Mus musculus; assay: Compound was evaluated for leukemia related splenomegaly in DBA2 mice spleen weight was determined ~ 24 hour after the last treatment at schedule of administration at bid, day 1,3, 5, 7, 9, 11 at a dose 400 mg/kg; Toxic; assay type: ADME, organism-based; design: dose 400 mg/kg; details: in vivo
[29] = system: L1210; assay: Residual leukemic cell populations after last treatment in L1210 leukemic mice treated with 1333 mg/kg of compound (qd, day 1); assay type: functional, Mus musculus
[30] = system: L1210; assay: Residual leukemic cell populations after last treatment in L1210 leukemic mice treated with 2222 mg/kg of compound (qd, day 1); Toxic; assay type: toxicity, organism-based; design: dose 2222 mg/kg; details: mouse, in vivo
[31] = system: L1210; assay: Residual leukemic cell populations after last treatment in L1210 leukemic mice treated with 288 mg/kg of compound (qd, day 1); assay type: functional, Mus musculus
[32] = system: L1210; assay: Residual leukemic cell populations after last treatment in L1210 leukemic mice treated with 288 mg/kg of compound (qd, day 1-7); assay type: functional, Mus musculus
[33] = system: L1210; assay: Residual leukemic cell populations after last treatment in L1210 leukemic mice treated with 3704 mg/kg of compound (qd, day 1); Toxic; assay type: toxicity, organism-based; design: dose 3704 mg/kg; details: mouse, in vivo
[34] = system: L1210; assay: Residual leukemic cell populations after last treatment in L1210 leukemic mice treated with 400 mg/kg of compound (qd, day 1); assay type: functional, Mus musculus
[35] = system: L1210; assay: Residual leukemic cell populations after last treatment in L1210 leukemic mice treated with 488 mg/kg of compound (qd, day 1-7); Toxic; assay type: toxicity, organism-based; design: dose 488 mg/kg; details: mouse, in vivo
[36] = system: L1210; assay: (§4) Residual leukemic cell populations after last treatment in L1210 leukemic mice treated with 800 mg/kg of compound (qd, day 1); assay type: functional, Mus musculus
[37] = system: L1210; assay: as §4; assay type: functional, Mus musculus; remark: listed apart in the source
[38] = system: L1210; assay: Residual leukemic cell populations after last treatment in L1210 leukemic mice treated with 800 mg/kg of compound (qd, day 1-7); Toxic; assay type: toxicity, organism-based; design: dose 800 mg/kg; details: mouse, in vivo
[39] = system: Mus musculus; assay: Compound was evaluated for leukemia related splenomegaly in DBA2 mice spleen weight was determined ~ 24 hour after the last treatment at schedule of administration = qd, day 1,3, 5, 7, 9, 11 at a dose 1333 mg/kg; Toxic; assay type: ADME, organism-based; design: dose 1333 mg/kg; details: in vivo
[40] = system: Mus musculus; assay: Post inoculation life span in L1210 leukemic mice treated with 1333 mg/kg of compound (qd, day 1); assay type: functional
[41] = system: Mus musculus; assay: Post inoculation life span in L1210 leukemic mice treated with 2222 mg/kg of compound (qd, day 1); Tested in 6 mice; assay type: functional
[42] = system: Mus musculus; assay: Post inoculation life span in L1210 leukemic mice treated with 288 mg/kg of compound (qd, day 1-7); Tested in 6 mice; assay type: functional
[43] = system: Mus musculus; assay: Post inoculation life span in L1210 leukemic mice treated with 288 mg/kg of compound (qd, day 1); Tested in 6 mice; assay type: functional
[44] = system: Mus musculus; assay: Post inoculation life span in L1210 leukemic mice treated with 3704 mg/kg of compound (qd, day 1); Tested in 6 mice; assay type: functional
[45] = system: Mus musculus; assay: Post inoculation life span in L1210 leukemic mice treated with 480 mg/kg of compound (qd, day 1); Tested in 6 mice; assay type: functional
[46] = system: Mus musculus; assay: Post inoculation life span in L1210 leukemic mice treated with 480 mg/kg of compound (qd, day 1-7); Tested in 6 mice; assay type: functional
[47] = system: Mus musculus; assay: Post inoculation life span in L1210 leukemic mice treated with 800 mg/kg of compound (qd, day 1); Tested in 6 mice; assay type: functional
[48] = system: Mus musculus; assay: Post inoculation life span in L1210 leukemic mice treated with 800 mg/kg of compound (qd, day 1-7); Tested in 6 mice; assay type: functional
[49] = system: Mus musculus; assay: Compound was evaluated for leukemia related splenomegaly in DBA2 mice spleen weight was determined ~ 24 hour after the last treatment at schedule of administration = qd, day 1,3, 5, 7, 9, 11 at a dose 480 mg/kg; assay type: functional
[50] = system: Mus musculus; assay: Compound was evaluated for leukemia related splenomegaly in DBA2 mice spleen weight was determined ~ 24 hour after the last treatment at schedule of administration = qd, day 1,3, 5, 7, 9, 11 at a dose 800 mg/kg; Toxic; assay type: ADME, organism-based; design: dose 800 mg/kg; details: in vivo

## COC(=N)c1ncn([C@@H]2O[C@H](CO)[C@@H](O)[C@H]2O)n1
[1]
  Control: 12%
[2]
  Control: Toxic
[3]
  Control: 30% and 21%
[4]
  Control: 46%
[5]
  Control: 73%
[6]
  Control: Toxic
[7]
  Control: 0.6%
[8]
  Control: Toxic
[9]
  Control: 9%
[10]
  Control: 32%
[11]
  Control: Toxic
[12]
  T/C: 125%
[13]
  T/C: 162%
[14]
  T/C: 101%
[15]
  T/C: 113% and 116%
[16]
  T/C: 119%
[17]
  T/C: 162% and 97%
[18]
  T/C: 153%
[19]
  T/C: 76%
[20]
  T/C: 61%
[21]
  T/C: 114%
[22]
  T/C: 121%
[23]
  T/C: 142%
[24]
  T/C: 60%
[25]
  Spleen weight: 599 mg
[26]
  Spleen weight: 216 mg
[27]
  Spleen weight: 150 mg
[28]
  Spleen weight: Toxic

## CCOC(=N)c1ncn(C2O[C@H](CO)[C@@H](O)[C@H]2O)n1 (stereo not given in full)
[29]
  Control: 1.3%
[30]
  Control: Toxic
[31]
  Control: 1.7%
[32]
  Control: 27%
[33]
  Control: Toxic
[34]
  Control: 1.1%
[35]
  Control: Toxic
[36]
  Control: 0.4%
[37]
  Control: 1.7%
[38]
  Control: Toxic
[39]
  Spleen weight: Toxic
[40]
  T/C: 149%
[41]
  T/C: 92%
[42]
  T/C: 144%
[43]
  T/C: 114%
[44]
  T/C: 48%
[45]
  T/C: 149%
[46]
  T/C: 134%
[47]
  T/C: 159% and 144%
[48]
  T/C: 70%
[49]
  Spleen weight: 1257 mg
[50]
  Spleen weight: Toxic
